Data reported in patent US12357636B2 (Urovant Sciences GmbH, priority 2018, dated 2025).
Like-named read-outs stand apart in the source and are kept apart here.

What was measured:
[1] = mass balance study with [14C]vibegron; details: 2 and 4 hr
men and women with OAB = experiment: Phase 2b study in OAB: efficacy (voiding diary); assay type: in vivo, human; details: tolterodine ER 4 mg QD
Text: Part 2 was designed to continue to assess the safety and efficacy of concomitant dosing. […] Subjects in both Part 1 and Part 2 had the option of enrolling in a 1-year extension. Participants were required to keep a voiding diary, recording the occurrence of each strong urge, total incontinence, and urge incontinence episode. Efficacy data for Part 1 and Part 2 are summarized herein.
The total number of urgency incontinence episodes must have exceeded the total number of stress incontinence episodes for all subjects.
Conversely, a dose dependent effect on urge incontinence or total incontinence was not observed.

[2] = system: patients with overactive bladder
Text: A placebo group was included in the main study, and a group that received tolterodine monotherapy was included in the main study and in the extension.

patients with OAB = experiment: Phase 2b study: cardiovascular safety, orthostatic AEs, blood pressure and heart rate changes (Table 17); assay type: in vivo, human; details: tolterodine 4 mg
Text: None led to discontinuation. The overall incidence of orthostatic symptoms was low.
Small differences in the percent of subjects exceeding categorical heart rate and blood pressure thresholds for vibegron were similar to those in the tolterodine arm.

[3] = system: men and women with overactive bladder; experiment: Phase 3 study vibegron 75 mg vs placebo and tolterodine, 12 weeks, OAB: efficacy (Tables 21-25); assay type: in vivo, human; details: for Micturitions: Week 12 CFB Mean / Urgency Episodes: Week 12 CFB Mean / UUI: Week 12 CFB Mean: descriptive statistics; for UUI: Week 12 CFB Mean: daily UUI episodes
Procedure: Enrollment of patients included individuals with OAB Wet (those with UUI, the involuntary loss of urine accompanied by urgency) and OAB Dry (those without UUI). A total of 1,518 patients were randomized across 215 study sites into one of three groups for a 12-week treatment period.
The study consisted of a Screening Period (1 to 5 weeks), a single-blind Run-in Period (2 weeks), a randomized double-blind Treatment Period (12 weeks), and a Follow-up Period (4 weeks).
Tolterodine ER 4 mg was the active control. […] Between the Baseline and Week 12 Visits, patients had study assessments at Week 4 and Week 8.
For the analysis of the co-primary endpoints (change from baseline in average number of daily micturitions at Week 12 and change from baseline in average number of daily urge urinary incontinence episodes at Week 12, and placebo adjustment of each), a mixed model for repeated measure (MMRM) with restricted maximum likelihood estimation was used. This model corrects for dropout and accounts for the fact that measurements taken on the same patient over time tend to be correlated by using all available information on patients within the same covariate set to derive an estimate of the treatment effect for a dropout-free population. The analysis model for each efficacy endpoint includes terms for treatment, visit, OAB Type (Wet vs Dry), Sex (Female vs Male), Region (US vs Rest of World), baseline score, and interaction of visit by treatment.
Primary inferences were drawn from treatment differences for the changes from baseline derived from the MMRM models at Week 12. As part of secondary objectives, the treatment differences for each post baseline visit were also derived using the same MMRM model.
An unstructured covariance matrix was used to model the correlation among repeated measurements. The Kenward-Roger adjustment was used with restricted (or residual) maximum likelihood (REML) to make statistical inference. If the unstructured covariance model fails to converge with the default Newton-Raphson algorithm, the Fisher scoring algorithm or other appropriate methods can be used to provide initial values of the covariance parameters. In the rare event that none of the above methods yield convergence, a structured covariance would be used to model the correlation among repeated measurements.
The change from baseline efficacy endpoints was analyzed using the same MMRM model described for co-primary endpoints.
Analysis of the efficacy endpoints of proportion of patients with at least 75% reduction in the average number of daily UUI episodes at Week 12 and proportion of patients with 50% reduction in the average number of daily urgency episodes at Week 12 was analyzed using the Cochran-Mantel-Haenszel risk difference estimate. Missing Week 12 data was analyzed using multiple imputation. The estimated difference in the proportion of responders and 95% confidence interval for the difference was calculated using the Cochran-Mantel-Haenszel risk difference estimate stratified by OAB Type (Wet vs Dry) and Sex (Female vs Male), with weights proposed by Greenland and Robins.
The same statistical methods that were used to analyze the co-primary and secondary efficacy endpoints were used for the exploratory analyses. Exploratory responder analyses were analyzed using the same Cochran-Mantel-Haenszel model as described above for secondary endpoints.

[4] = system: men and women with overactive bladder; experiment: Phase 3 study vibegron 75 mg: post-void residual urine volume (Tables 26-28); assay type: in vivo, human
Text: The risk of acute urinary retention or morbidities related to an increase in Post-Void Residual (PVR) is a concern with antimuscarinic therapy that promotes smooth muscle relaxation by inhibiting acetylcholine-induced smooth muscle contraction. If, during contraction, the bladder cannot generate enough pressure to overcome the outlet resistance in the urethra, either because of poor detrusor contractility or profound obstruction (most commonly from BPH), acute urinary retention or incomplete emptying of the bladder may result.
The volume of urine that remains in the bladder after voiding (PVR) is an objective measurement that may serve as a proxy for impaired ability to void.
PVR were performed via ultrasound at the visits indicated in the Schedule of Activities.
In addition, the data on the Post Void Residual Urine Volume (PVR) in all males and males with a medical history of BPH is shown in Tables 26 and 27, respectively.

[5] = drug interaction of vibegron and metoprolol succinate (CYP2D6 substrate); assay type: in vivo, human
[6] = counts based on 3 consecutive post-baseline visits
[7] = Week 12, co-primary endpoint, once-daily vibegron 75 mg or tolterodine
[8] = Week 12, key secondary endpoint, once-daily vibegron 75 mg or tolterodine
[9] = Males with medical history of BPH
[10] = all males, vibegron 75 mg or tolterodine ER 4 mg QD
[11] = metoprolol 100 mg, vibegron 75 mg

## O=C(O)C1OC(OC(c2ccccc2)C2CCC(Cc3ccc(NC(=O)C4CCc5nccc(=O)n54)cc3)N2)C(O)C(O)C1O (stereo not shown) [M7]
[1]
  share of total circulating drug-related material in human plasma: 12-14%

## Cc1ccc(O)c([C@H](CCN(C(C)C)C(C)C)c2ccccc2)c1 [Tolterodine ER, tolterodine]
Men and women with OAB
  Micturitions difference from placebo in LS means, Week 8: −0.54
  Urgency Episodes difference from placebo in LS means, Week 8: −0.94
Men and women with OAB; OAB Wet
  Total Incontinence Episodes difference from placebo in LS means, Week 8: −0.34
  Urgency Incontinence Episodes difference from placebo in LS means, Week 8: −0.46
[2]; ER 4 mg QD
  Accidental overdose: 6 (2.3) n (%)
  Alanine aminotransferase increased: 1 (0.4) n (%)
  Arthralgia: 3 (1.2) n (%)
  Aspartate aminotransferase increased: 0 (0.0) n (%)
  Constipation: 5 (1.9) n (%)
  Diarrhea: 9 (3.5) n (%)
  Discontinuation due to AE: 4 (1.6) n (%)
  Discontinuation due to drug-related AE: 0 n (%)
  Dizziness: 5 (1.9) n (%)
  Drug-related AE: 42 (16.3) n (%)
  Dry eye: 10 (3.9) n (%)
  Dry mouth: 22 (8.6) n (%)
  Dysuria: 3 (1.2) n (%)
  Fatigue: 6 (2.3) n (%)
  Headache: 9 (3.5) n (%)
  Nasopharyngitis: 4 (1.6) n (%)
  Nausea: 6 (2.3) n (%)
  Osteoarthritis: 0 (0.0) n (%)
  Pain in extremity: 1 (0.4) n (%)
  Serious AE: 3 (1.2) n (%)
  Sinusitis: 1 (0.4) n (%)
  Urinary tract infection: 12 (4.7) n (%)
  ≥1 AE: 116 (45.1) n (%)
[2]; ER 4 mg QD, listed as tolterodine
  Serious AE: 3 n (%)
[2]; Phase 2, tolterodine arm vs vibegron
  frequency of injuries: 2.1%
Patients with OAB; [6]
  DBP Change from Baseline [≥] 5 mm Hg, n/N (%): 30/242 (12.4) %
  DBP Change from Baseline [≥] 10 mm Hg, n/N (%): 13/242 (5.4) %
  DBP Change from Baseline ≥15 mm Hg, n/N (%): 3/242 (1.2) %
  HR Change from Baseline [≥] 5 mm Hg, n/N (%): 29/242 (12.0) %
  HR Change from Baseline [≥] 10 bpm, n/N (%): 11/242 (4.5) %
  HR Change from Baseline ≥15 bpm, n/N (%): 4/242 (1.7) %
  SBP Change from Baseline [≥] 5 mm Hg, n/N (%): 41/242 (16.9) %
  SBP Change from Baseline [≥] 10 mm Hg, n/N (%): 19/242 (7.9) %
  SBP Change from Baseline ≥15 mm Hg, n/N (%): 7/242 (2.9) %
Patients with OAB; mean maximum from week 1 to 8
  DBP Change from Baseline, Mean (95% CI) Max: 5.19 (4.26, 6.13) mm Hg
  HR Change from Baseline, Mean (95% CI) Maximum: 5.66 (4.69, 6.63) bpm
  SBP Change from Baseline, Mean (95% CI) Maximum: 7.29 (6.01, 8.57) mm Hg
Patients with OAB; week 1
  DBP Change from Baseline, Mean (95% CI) (week 1): −0.12 (−1.10, 0.86) mm Hg
  HR Change from Baseline, Mean (95% CI) (week 1): 0.68 (−0.31, 1.67) bpm
  SBP Change from Baseline, Mean (95% CI) (week 1): 0.04 (−1.36, 1.43) mm Hg
[3]; Males with BPH
  Micturitions: Week 12 CFB Mean: −1.25
  Urgency Episodes: Week 12 CFB Mean: −3.29
  UUI: Week 12 CFB Mean: −2.15
[3]; Males without BPH
  Micturitions: Week 12 CFB Mean: −1.29
  Urgency Episodes: Week 12 CFB Mean: −2.32
  UUI: Week 12 CFB Mean: −2.05
[3]; Overall for Males
  Micturitions: Week 12 CFB Mean: −1.28
[3]; Overall
  Micturitions: Week 12 CFB Mean: −1.78
  Urgency Episodes: Week 12 CFB Mean: −2.57
  UUI: Week 12 CFB Mean: −1.75
[3]; [7]
  Micturitions, Week 12 LS Mean Change from Baseline (Placebo-Adjusted): −0.3
  UUI Episodes, Week 12 LS Mean Change from Baseline (Placebo-Adjusted): −0.4
[3]; [8]
  OAB-q Coping Score, Week 12 LS Mean Change from Baseline (Placebo-Adjusted): 3.1
  Total Incontinence Episodes, Week 12 LS Mean Change from Baseline (Placebo-Adjusted): −0.5
  Urgency Episodes, Week 12 LS Mean Change from Baseline (Placebo-Adjusted): −0.4
  Volume Voided, Week 12 LS Mean Change from Baseline (Placebo-Adjusted): 13.3 mL
[4]; [9]
  PVR Categories at Week 12: <100 mL: 71.4%
  PVR Categories at Week 12: ≥100 mL to <200 mL: 28.6%
  PVR Categories at Week 12: ≥200 mL to <350 mL: 0%
  PVR Categories at Week 12: ≥350 mL: 0%
  PVR Mean Change from Baseline at Week 12 (SD): 3.7 (50.64) mL
[4]; [10]
  PVR Mean Change from Baseline at Week 12 (SD): 10.2 (44.24) mL
  PVR category <100 mL at Week 12: 85.2%
  PVR category ≥100 mL to <200 mL at Week 12: 11.5%
  PVR category ≥200 mL to <350 mL at Week 12: 3.3%
  PVR category ≥350 mL at Week 12: 0
[4]; study population as a whole
  PVR Categories at Week 12: <100 mL: 86.5%
  PVR Categories at Week 12: ≥100 mL to <200 mL: 5.8%
  PVR Categories at Week 12: ≥200 mL to <350 mL: 0.7%
  PVR Categories at Week 12: ≥350 mL: 0%
  PVR Mean Change from Baseline at Week 12 (SD): 3.1 (40.93) mL

## COCCc1ccc(OCC(O)CNC(C)C)cc1 (stereo not shown) [Metoprolol, metoprolol succinate]
[5]; [11]
  AUC0-∞ ratio of GLS mean, metoprolol + vibegron/metoprolol alone: 1.40
  Cmax ratio of GLS mean, metoprolol + vibegron/metoprolol alone: 1.49
[5]; metoprolol succinate 100 mg, vibegron 75 mg QD
  geometric mean Cmax and AUC in the presence of vibegron: increased slightly
